Laboratory results as given in US7470669B2, “Isolated polypeptide comprising a leptin fragment” (Serono Genetics Institute, S.A., priority 1999, dated 2008).

Tests used:
LSR [1] = assay: 125I-leptin degradation in PLC cells; type: cell-based, human; details: 50 μM
LSR [2] = assay: LSR activity (oleate-induced 125I-LDL binding, uptake, degradation) in primary cultures of rat hepatocytes; type: cell-based; details: rat hepatocytes; 50 μM
Procedure: FIGS. 6A, 6B, and 6C show the effect of leptin on ^125I-LDL and ^125I-chylomicron binding to LSR in primary cultures of rat hepatocytes. For FIG. 6A, primary cultures of rat hepatocytes (48 hours after plating) were incubated at 37° C. for 30 min in the absence (□) or presence (▪) of 50 ng/mL leptin in Buffer A, followed by a 20 min incubation at 37° C. with 0.5 mM oleate. The cells were then washed with ice-cold PBS, precooled for 10 min, and then incubated for 1 h at 4° C. with increasing concentrations of ^125I-LDL in Buffer A. Cells were washed, were lysed in 0.1 N NaOH and were counted for radioactivity. Results are shown as the mean of duplicate determinations. For FIG. 6B, primary cultures of rat hepatocytes were incubated at 37° C. for 30 min with or without 20 ng/mL leptin followed by incubation at 37° C. for 4 h with 6 μg protein/mL ^125I-chylomicrons in the absence or presence of 0.5 mM oleate in Buffer A. The cells were then washed and the ^125I-chylomicrons bound to the cell surface were released into the media by incubation with 10 mM suramin. The media was recovered and the radioactivity was measured. Results are shown as the mean±SD of six determinations. Fir FIG. 6C, after incubation at 37° C. for 30 min with 50 ng/mL leptin, the cells were incubated at room temperature for 30 min with 200 μg IgG/mL antibodies directed against rat LSR protein or irrelevant IgG. The amount of ^125I-chylomicrons bound was determined, and results are shown as means±SD of triplicate (irrelevant) or quadruplicate (anti-LSR) determinations.
(§1) FIGS. 7A and 7B show a comparison of the effect of human and mouse leptin on LSR activity in rat hepatocytes and on postprandial increase in plasma TG in db^Pas/db^Pas mice. For FIG. 7A, primary cultures of rat hepatocytes were incubated 30 min at 37° C. without (open bar) or with 10 ng/mL recombinant human (solid bar) or mouse (hatched bar) leptin in Buffer A. Oleate (0.5 mM) and ^125I-LDL (20 μg/mL) were added and the cells were incubated 2 h at 37° C. The media were removed and were analyzed for TCA-soluble degradation products. The mean of duplicate determinations is shown. For FIG. 7B, db^Pas/db^Pas mice were given a test meal as previously described, followed immediately by injection i.p. of saline (open bar, n=4), human leptin (1 μg/animal; solid bar, n=3) or mouse leptin (0.25 μg/animal; hatched bar; n=3). The data represent the difference in TG concentrations measured at t=0 and the average of the concentrations at 3 and 4 hours. Results are shown as mean±SEM.
Cells were incubated 30 min at 37° C. with increasing concentrations of mouse (▪) or human (●) leptin peptide. Following this, 0.5 mM oleate and 20 μg/mL ^125I-LDL were added and the cells were further incubated for 2 h at 37° C. The cells were washed, and the amount of oleate-induced ^125I-LDL bound and degraded was measured as described previously (Bihain, B. E., and Yen, F. T. (1992). Free fatty acids activate a high-affinity saturable pathway for degradation of low-density lipoproteins in fibroblasts from a subject homozygous for familial hypercholesterolemia. Biochemistry 31, 4628-4636).
FIGS. 11A and 11B show the effect of mouse leptin (FIG. 11A) or leptin peptide (FIG. 11B) on postprandial plasma TG response in ob/ob mice. […] Postprandial triglyceridemia was measured as described previously. Each point represents the mean±SEM (A: saline, n=8, leptin, n=7; leptin peptide: saline, n=8, leptin, n=8). […] Primary cultures of rat hepatocytes were incubated 30 min at 37° C. with increasing concentrations of mouse leptin peptide. Oleate (0.5 mM) and ^125I-LDL (20 μg/mL) were added and the cells were incubated 2 h at 37° C. After washing, the amount of 125I-LDL bound to the cell surface was measured as described in the Examples section herein. […]

LSR [3] = assay: LSR activity (oleate-induced 125I-LDL binding, uptake, degradation) in PLC cells; type: cell-based, human
Procedure: FIGS. 5A, 5B, 5C, and 5D show the stimulatory effect of leptin on LSR activity in PLC and suppression of this effect by 81B antibody. For FIGS. 5A, 5B, and 5C, cultured PLC cells were incubated at 37° C. for 30 min with increasing concentrations of human recombinant leptin in Buffer A. After this, 0.5 mM oleate and 20 μg/mL ^125I-LDL were added, and cells were further incubated at 37° C. for 2 h. Cells were washed, and the amount of oleate-induced ^125I-LDL bound (5A), internalized (5B) and degraded (5C) were measured. For FIG. 5D, PLC cells were incubated at room temperature for 30 min with 200 μg/mL anti-LSR peptide 81B or 170 antibody, followed by incubation at 37° C. for 30 min without (open bar) or with (hatched bar) 10 ng/mL human leptin. Oleate (0.5 mM) and ^125I-LDL (20 μg/mL) were added, and the monolayers were left at 37° C. for 3 h. After washing, the amount of ^125I-LDL binding was determined, and is shown here as the mean±SD of triplicate determinations.
FIGS. 8A and 8B show the effect of mouse or human leptin on LSR activity in primary cultures of rat hepatocytes or a human liver cell line (PLC). Primary cultured rat hepatocytes were obtained commercially (In Vitro Tech). The PLC cell line was obtained from ATCC repository and maintained in culture. Rat hepatocytes 72 h after plating (8A) or confluent monolayers of PLC (8B) were incubated 30 min at 37° C. with 0 (closed bar) or 10 ng/mL of human (open bar) or mouse (hatched bar) recombinant leptin. Following this, 0.5 mM oleate and 20 μg/mL ^125I-LDL were added and the cells were further incubated for 2 h at 37° C. […] The cells were washed, and the amount of oleate-induced ^125I-LDL bound and degraded was measured as described previously (Bihain, B. E., and Yen, F. T. (1992). Free fatty acids activate a high-affinity saturable pathway for degradation of low density lipoproteins infibroblasts from a subject homozygous for familial hypercholesterolemia. Biochemistry 31, 4628-4636.
FIGS. 35A and 35B show graphs of LSR activity and mRNA expression measured in PLC cells preincubated 24 h with leptin. In FIG. 35A, PLC monolayers were incubated 24 h at 37° C. with (o) or without (n) 200 ng/mL human recombinant leptin. After washing with PBS, cells were incubated 30 min at 37° C. with increasing concentrations of human leptin, followed by a 2 h incubation at 37° C. with 0.8 mM oleate and 20 μg/mL ^125I-LDL. Cells were washed, and the amount of oleate-induced ^125I-LDL binding was measured as described previously. Results are shown as the mean of triplicate determinations. In FIG. 35B, PLC monolayers were incubated 24 h at 37° C. with 0, 200, or 400 ng/mL human recombinant leptin. After washing with PBS, the cells were harvested. Total RNA was prepared from the cell pellets, and Northerns were performed to detect LSR mRNA, using GAPDH probe as loading control as described previously. Northern blots were scanned on the Phosphorimager (Molecular Dynamics, Sunnyvale, Calif.). Densitometric analysis of the images was performed using the software ImageQuant. Results are shown as the amount of LSR signal relative to that of GAPDH (mean±SD, n=3/condition). […]

db^Pas/db^Pas mice = assay: Postprandial plasma TG response after high-fat test meal in db^Pas/db^Pas mice; type: in vivo, mouse; details: 1 μg/animal i.p.
Procedure: FIGS. 1A and 1B show the effect of leptin on postprandial plasma TG response in db/db and db^Pas/db^Pas mice. Overnight-fasted db/db (A), db^Pas/db^Pas (B) mice were gavage-fed a high-fat test meal and immediately injected intravenously (db/db) or intraperitoneally (db^Pas/db^Pas) with saline (open symbols) or 50 μg mouse recombinant leptin (closed symbols). At the indicated times, blood was collected from the tail (A) or orbital (B) vein, plasma was separated by centrifugation, and plasma TG concentrations were determined using an enzymatic kit. Each point represents the mean±SEM (db/db: saline, n=4, leptin, n=3; db^Pas/db^Pas: saline, n=6, leptin, n=7). The average plasma lipid response in 10 control C57BL6 mice is shown as a dotted line in both A and B. In a separate experiment, shown as an inset for each strain of mice, overnight fasted db/db (●) or db^Pas/db^Pas (▪) mice were gavage-fed the test meal and immediately injected intravenously with increasing concentrations of leptin. The plasma lipid response was then measured as in A and B. The area under the response curve (AUC) was then calculated using a triangulation method on Microsoft Excel between 0 and 4 hr (mg TG·h/mL). Values are presented as % of control value (test meal alone obtained in A or B). Each point represents the mean of at least 3 mice.
as §1
Mice that were fasted for 2-3 hours were gavage-fed 300 μL of a test meal consisting of 60% fat (37% saturated, 27% mono-, and 36% polyunsaturated fatty acids), 20% protein and 20% carbohydrate, and providing 56 kcal of energy/kg (1.5 g butter, 1.5 g sunflower oil, 2.5 g nonfat dry milk, 2.5 g sucrose and 3 ml water). […] TG concentrations were determined using a commercially available enzymatic kit with controls included in each assay (Precinorm L, Roche-Boehringer Mannheim; Lyotrol N, BioMérieux).

CCN(CC)CCCC(C)Nc1ccnc2cc(Cl)ccc12 (stereo not shown) [Chloroquine]
increase of the amount of cell-associated 125I-leptin (LSR [1]): 2-4 fold | inhibition of 125I-leptin degradation (LSR [1]): more than 60%

C[C@@H]1C[C@@H]([C@H](O)CC2CC(=O)NC(=O)C2)C(=O)[C@@H](C)C1 [cycloheximide, reference compound]
effect on the stimulatory effect of leptin on LSR activity (LSR [2]): did not suppress the stimulatory effect of leptin

C=C1[C@@H](C)[C@H]2[C@H](Cc3ccccc3)NC(=O)[C@]23OC(=O)/C=C/[C@H](O)CCC[C@@H](C)C/C=C/[C@H]3[C@@H]1O [cytochalasin B, reference compound]
reduction of leptin stimulation of LSR activity (LSR [2]): more than 80%

human leptin: commercial preparation of recombinant human leptin
stimulation of LSR activity in human PLC cells (LSR [3]; 10 ng/mL recombinant leptin): more efficient | LSR activity after long-term exposure (LSR [3]; human liver cells (PLC) preincubated 24 h with 200 ng/mL): markedly reduced LSR activity | postprandial plasma TG response (db^Pas/db^Pas mice): slightly reduced
